{"source": "patent US20210379040A1", "about": "“COMBINATION TREATMENT OF LIVER DISORDERS” (Terns Pharmaceuticals, Inc., priority 2020, published 2021)", "key": {"[1]": {"assay": "Tissue distribution after 2 mg/kg intravenous infusion", "type": "in vivo", "details": "SD rats, with 100 μM rifampin", "description": "The tested compounds were administered to SD rats (n=3 per compound) by way of 30 minute intravenous infusion at 2 mg/kg. Blood, liver, kidney, and lung tissue samples were collected from the rats to determine a tissue/plasma ratio."}, "mouse model of NASH": {"test_system": "mouse model of NASH", "assay": "Mouse model of NASH (high fat diet + CCl4)", "type": "in vivo, C57/BL6J mice", "quoted_text": "Hematoxylin & Eosin (H&E) and Sirius Red histological staining of liver tissue was used to quantitate NAFLD activity score (NAS), steatosis, ballooning, inflammation and fibrosis. […] Gene expression of RNA was analyzed by RT-qPCR and RNAseq.\nNAS is calculated based upon liver steatosis, inflammation, and ballooning and was determined by analysis of liver tissue histology using H&E stain. […] Hepatocellular ballooning is a form of liver cell injury associated with cell swelling and is also measured by H&E stained liver sections. The ballooning score is calculated as follows: 0-no hepatocyte ballooning; 1-few ballooning hepatocytes; 2-many hepatocytes with prominent ballooning.\nLiver fibrosis was quantified by histological analysis of the percentage of Sirius Red-positive liver sections. […] Liver triglycerides were measured from liver tissue using a biochemical analyzer (Hitachi-700)."}, "rat hepatocytes": {"test_system": "rat hepatocytes", "assay": "In vitro metabolic stability in cryopreserved hepatocytes (rat)", "type": "in vitro ADME", "details": "Sprague-Dawley Rat", "description": "In vitro half-life values were determined and scaled to predict hepatic clearance (CLpred) and hepatic extraction using the well-stirred liver model with no correction for plasma protein as described in Obach et al., The Prediction of Human Pharmacokinetic Parameters from Preclinical and In Vitro Metabolism Data, J. of Pharmacology and Experimental Therapeutics, vol. 283, no. 1, pp. 46-58 (1997)."}, "[2]": {"assay": "Pharmacokinetics assay, rat", "type": "in vivo, Sprague-Dawley (SD) rats", "details": "plasma, Sprague-Dawley Rat", "text": "Results are shown in FIG. 1A (IV administration) and FIG. 1B (oral administration), and in Table 2. […] Smaller Vdss in monkeys is correlated with higher plasma protein binding."}, "[3]": {"test_system": "FXR-regulated gene expression in human HuH7 hepatoma cells", "assay": "cells", "details": "Huh-7, 11 h", "quoted_text": "EC50 values for FXR-regulated gene expression were determined using a cell-based RNA assay."}, "[4]": {"assay": "PK/PD profile, single oral dose", "type": "in vivo", "details": "cynomolgus monkey, plasma, cynomolgus monkeys; for AUC(0-t): read-out: AUC0-24", "description": "Pharmacokinetics data is presented in Table 3, and were determined by non-compartmental analysis."}, "[5]": {"assay": "Multiple once daily dose study: plasma PK and safety", "type": "in vivo, human", "description": "3 groups of 8 healthy participants were randomized to receive multiple once daily (QD) doses of Compound 2 or matching placebo in a 3:1 ratio for 7 days (1 mg and 4 mg) or 14 days (10 mg). Plasma levels of Compound 2 and PD biomarkers (plasma amine oxidase activity and methylamine levels) were determined at pre-dose and various timepoints post-dose. Safety was assessed for up to 14 days after last dose."}, "SSAO": {"target": "T1, SSAO (Homo sapiens, UniProt Q16853)", "T1 sequence (Q16853 1-763)": "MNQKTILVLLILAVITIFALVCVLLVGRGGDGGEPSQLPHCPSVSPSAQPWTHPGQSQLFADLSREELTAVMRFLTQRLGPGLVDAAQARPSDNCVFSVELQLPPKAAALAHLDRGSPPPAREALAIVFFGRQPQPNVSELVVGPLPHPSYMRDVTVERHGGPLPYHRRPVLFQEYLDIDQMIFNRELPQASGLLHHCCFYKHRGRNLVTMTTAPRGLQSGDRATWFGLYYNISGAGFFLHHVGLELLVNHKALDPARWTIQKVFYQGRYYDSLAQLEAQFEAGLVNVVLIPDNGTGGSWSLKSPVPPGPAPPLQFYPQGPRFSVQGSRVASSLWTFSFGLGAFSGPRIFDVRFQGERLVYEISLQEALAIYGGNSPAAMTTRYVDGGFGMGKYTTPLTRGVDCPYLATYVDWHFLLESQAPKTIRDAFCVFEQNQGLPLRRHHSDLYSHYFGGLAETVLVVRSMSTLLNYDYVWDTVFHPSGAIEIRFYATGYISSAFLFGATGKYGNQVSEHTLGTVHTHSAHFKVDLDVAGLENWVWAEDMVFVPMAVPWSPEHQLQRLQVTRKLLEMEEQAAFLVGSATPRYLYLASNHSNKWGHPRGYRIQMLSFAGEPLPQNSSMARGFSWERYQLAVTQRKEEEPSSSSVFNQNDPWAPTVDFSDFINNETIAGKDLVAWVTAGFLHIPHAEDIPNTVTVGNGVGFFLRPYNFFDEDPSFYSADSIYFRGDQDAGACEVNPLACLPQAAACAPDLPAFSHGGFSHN", "assay": "Biochemical activity, SSAO"}, "[6]": {"assay": "Single-ascending dose clinical trial: plasma PK and safety", "quoted_text": "SSAO inhibition was determined by measuring relative reductions in plasma H2O2 generation after addition of an exogenous substrate (benzylamine). […] Safety was assessed for 7 (±3) days after dosing.\nPlasma PK parameters were determined by non-compartmental analysis. […] Percent change in total amine oxidase activity was determined relative to the corresponding pre-dose (baseline) samples."}, "[7]": {"details": "NASH mice, 10, 30, 100 mg/kg, vs untreated NASH mice"}}, "note": "Where two headings read alike, the source gives them in different places."}
{"smiles": "Cn1cc(C(=O)O)c2ccc(N3CCC(OCc4c(-c5c(Cl)cccc5Cl)noc4C4CC4)CC3)cc21", "note": "[Compound 1]", "values": [{"measurement": "change in distribution to the liver on co-administration with rifampin", "setting": "[1]", "result": "does not result in a significant change"}, {"measurement": "CYP7A1 expression (CPM) Relative to Vehicle", "setting": "mouse model of NASH; NASH mice liver, 30 mg/kg", "result": 0.02}, {"measurement": "CYP8B1 expression (CPM) Relative to Vehicle", "setting": "mouse model of NASH; NASH mice liver, 30 mg/kg", "result": 0.007}, {"measurement": "liver triglycerides", "setting": "mouse model of NASH; NASH mice, 100 mg/kg", "result": "statistically significant reduced triglyceride levels"}, {"measurement": "serum triglyceride concentration", "setting": "mouse model of NASH; NASH mice, 100 mg/kg", "result": "statically significant reduction"}, {"measurement": "serum ALT level", "setting": "mouse model of NASH; NASH mice, 10, 30, 100 mg/kg", "result": "reduced"}, {"measurement": "serum AST level", "setting": "mouse model of NASH; NASH mice, 10, 30, 100 mg/kg", "result": "reduced"}, {"measurement": "ballooning (score)", "setting": "mouse model of NASH; [7]", "result": "significantly reduced"}, {"measurement": "inflammation (score)", "setting": "mouse model of NASH; [7]", "result": "significantly reduced"}, {"measurement": "steatosis (score)", "setting": "mouse model of NASH; [7]", "result": "significantly reduced"}, {"measurement": "serum total cholesterol level", "setting": "mouse model of NASH; NASH mice, 10, 30, and 100 mg/kg", "result": "statistically significant reduction"}, {"measurement": "NAFLD Activity Score (NAS)", "setting": "mouse model of NASH; NASH mice, 10, 30, or 100 mg/kg daily oral, 28 days, vs untreated NASH mice", "result": "significantly lower NAS score"}, {"measurement": "collagen, type 1, alpha 1 expression in the liver", "setting": "mouse model of NASH; NASH mice, 10, 30, or 100 mg/kg, vs control NASH mice", "result": "decreased"}, {"measurement": "Liver fibrosis (Sirius Red-positive area)", "setting": "mouse model of NASH; NASH mice, 10, 30 or 100 mg/kg, vs untreated NASH control", "result": "statistically significant reduced fibrosis"}, {"measurement": "Hepatic Extraction", "setting": "rat hepatocytes", "result": "47.3 ± 0.78", "unit": "%"}, {"measurement": "In vitro Metabolic CLpred", "setting": "rat hepatocytes; well-stirred liver model", "result": "26.2 ± 0.5", "unit": "mL/min/kg"}, {"measurement": "clearance", "setting": "[2]; iv, intravenously 1 mg/kg", "result": 42.5, "unit": "mL/min/kg"}, {"measurement": "half-life", "setting": "[2]; iv, intravenously 1 mg/kg, read-out: IV Terminal t1/2 (converted)", "result": 2.45, "unit": "h"}, {"measurement": "Vd", "setting": "[2]; iv, intravenously 1 mg/kg, read-out: Vdss", "result": 1.31, "unit": "L/kg"}, {"measurement": "bioavailability", "setting": "[2]; po, orally 10 mg/kg", "result": 21, "unit": "%"}, {"measurement": "EC50", "setting": "[3]; read-out: EC50, BSEP Gene induction/HuH7", "result": 40, "unit": "nM"}, {"measurement": "EC50", "setting": "[3]; read-out: EC50, FGF-19 Gene Induction/HuH7", "result": 40, "unit": "nM"}, {"measurement": "EC50", "setting": "[3]; read-out: EC50, SHP Gene induction/HuH7", "result": 50, "unit": "nM"}, {"measurement": "Cmax", "setting": "[4]; oral 0.3 mg/kg", "result": "58.8 ± 30.2", "unit": "ng/mL"}, {"measurement": "Tmax", "setting": "[4]; oral 0.3 mg/kg", "result": "2.17 ± 1.47", "unit": "h"}, {"measurement": "AUC(0-t)", "setting": "[4]; oral 0.3 mg/kg", "result": "196 ± 64", "unit": "ng·h/mL"}, {"measurement": "Cmax", "setting": "[4]; oral 1 mg/kg", "result": "257 ± 124", "unit": "ng/mL"}, {"measurement": "Tmax", "setting": "[4]; oral 1 mg/kg", "result": "1.83 ± 1.17", "unit": "h"}, {"measurement": "AUC(0-t)", "setting": "[4]; oral 1 mg/kg", "result": "1000 ± 419", "unit": "ng·h/mL"}, {"measurement": "Cmax", "setting": "[4]; oral 5 mg/kg", "result": "709 ± 458", "unit": "ng/mL"}, {"measurement": "Tmax", "setting": "[4]; oral 5 mg/kg", "result": "2.25 ± 1.47", "unit": "h"}, {"measurement": "AUC(0-t)", "setting": "[4]; oral 5 mg/kg", "result": "2720 ± 1500", "unit": "ng·h/mL"}]}
{"smiles": "COC1CCN(c2ncc(OC/C(=C/F)CN)cn2)CC1", "note": "[Compound 2]", "values": [{"measurement": "plasma PK exposure increases between dose groups", "setting": "[5]; Day 1, QD 1, 4, 10 mg", "result": "greater than dose proportional"}, {"measurement": "half-life versus dose", "setting": "[5]; QD 1, 4, 10 mg", "result": "increased with dose"}, {"measurement": "accumulation after multiple QD doses", "setting": "[5]; each dose level", "result": "significant accumulation"}, {"measurement": "adverse events or laboratory abnormalities", "setting": "[5]; healthy participants, QD 1 mg and 4 mg for 7 days or 10 mg for 14 days", "result": "No clinically relevant adverse events or laboratory abnormalities were reported"}, {"measurement": "time to steady state", "setting": "[5]; highest dose cohort (10 mg QD)", "result": 7, "unit": "days"}, {"measurement": "safety and tolerability", "setting": "[5]; up to 10 mg QD for 14 days", "result": "safe and well tolerated"}, {"measurement": "IC50", "setting": "SSAO", "result": 6.5, "unit": "nM"}, {"measurement": "plasma PK exposure increase with dose", "setting": "[6]; between the 3 and 10 mg dose levels, single oral dose", "result": "greater than dose proportional"}, {"measurement": "tolerability", "setting": "[6]; doses 1, 3, 6, and 10 mg, single dose", "result": "well tolerated"}, {"measurement": "adverse events or laboratory abnormalities", "setting": "[6]; healthy humans, single oral dose 1-10 mg", "result": "No clinically relevant adverse events or laboratory abnormalities were reported"}, {"measurement": "half-life", "setting": "[6]; male, human, plasma, po, 10 mg", "result": "1 to 3", "unit": "h"}]}
